The text below walks through data of patent US8362000B2, “Azetidinyl diamides as monoacylglycerol lipase inhibitors” (Janssen Pharmaceutica NV, priority 2009, dated 2013).

Each structure is given as a SMILES string. Positions count from the first letter of the chain named. Read-outs that look alike come from different tables or passages of the source.

In one experiment the target is T1, MGL (Rattus norvegicus, UniProt Q8R431).
T1 construct: one g rat brain was homogenized using a Polytron homogenizer; from tissue; host or cells: rat brain homogenate
T1 sequence (Q8R431 1-303): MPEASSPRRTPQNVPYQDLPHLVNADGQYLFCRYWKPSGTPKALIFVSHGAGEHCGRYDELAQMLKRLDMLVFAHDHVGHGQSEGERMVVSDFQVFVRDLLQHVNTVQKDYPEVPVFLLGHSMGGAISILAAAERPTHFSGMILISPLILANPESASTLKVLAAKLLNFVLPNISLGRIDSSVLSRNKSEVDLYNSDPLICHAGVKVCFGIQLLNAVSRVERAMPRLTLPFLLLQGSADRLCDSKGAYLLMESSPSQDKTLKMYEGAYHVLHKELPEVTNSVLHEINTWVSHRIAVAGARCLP
Description: 2-AG accumulation assay in rat brain homogenate. Format: biochemical. The conditions noted are these: rat brain homogenate, 2-AG accumulation as percent of vehicle; for 2-AG accumulation, % of vehicle control at 1 µM: compound 1 μM, read-out: Rat Brain 2AG % VehCntrl (%) @ 1 μM; for 2-AG accumulation, % of vehicle control at 10 µM: compound 10 μM, read-out: Rat Brain 2AG % VehCntrl (%) @ 10 μM.

A further experiment concerns the target T2, mutant MGL (Homo sapiens, UniProt Q99685, L169S/L176S).
T2 sequence (Q99685 1-303 L169S/L176S): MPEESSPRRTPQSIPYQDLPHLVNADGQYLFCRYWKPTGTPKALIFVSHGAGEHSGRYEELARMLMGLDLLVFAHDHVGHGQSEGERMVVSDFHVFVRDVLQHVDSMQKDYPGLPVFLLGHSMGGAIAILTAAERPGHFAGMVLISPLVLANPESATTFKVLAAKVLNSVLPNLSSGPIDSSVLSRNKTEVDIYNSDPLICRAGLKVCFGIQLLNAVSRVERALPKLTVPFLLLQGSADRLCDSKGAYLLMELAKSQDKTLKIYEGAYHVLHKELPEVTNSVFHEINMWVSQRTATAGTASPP
In words: MGL ThermoFluor assay - mutant. In kind it is binding. A general note: Differential scanning fluorimetry follows unfolding on heating by fluorescence.

Experiment [1] addresses T3, purified wild type MGL (wt-MGLL 6H-11-313) (Homo sapiens, UniProt Q99685).
T3 sequence (Q99685 1-303): T2 sequence (Q99685 1-303 L169S/L176S) with S169L, S176L

[2] abbreviates: ThermoFluor concentration-response, read-out: MGL mutant ThermoFluor Kd.
The mark [3] stands for this setting: ThermoFluor, compound concentration measured by qNMR, read-out: MGL mutant ThermoFluor qKd (μM) (using qNMR conc.).
The mark [4] stands for this setting: ThermoFluor thermal stability binding assay, read-out: MGL mutant ThermoFluor Kd.
Setting [5] is: ThermoFluor, compound concentration measured by qNMR, read-out: MGL mutant ThermoFluor qKd (using qNMR conc.).

The IC50 is the concentration that gives 50% inhibition. Take `O=C(c1cc2cc(C(F)(F)F)ccc2s1)N1CCN(C2CN(C(=O)c3nccs3)C2)CC1` [Cpd 676, 1-[1-(1,3-Thiazol-2-ylcarbonyl)azetidin-3-yl]-4-{[5-(trifluoromethyl)-1-benzothiophen-2-yl]carbonyl}piperazine]: the 2-AG accumulation, % of vehicle control at 1 µM on MGL was determined as 437%. The Kd on mutant MGL (setting [2]) was 0.029 µM. The molecule further had a 50% inhibitory concentration (IC50) in experiment [1] of 21 nM.
Consider `O=C(c1cscn1)N1CCN(C2CN(C(=O)c3nn(-c4ccc(Cl)cc4Cl)c4c3CCC/C4=C\c3ccc(Cl)cc3)C2)CC1` [Cpd 1023], for which the 2-AG accumulation, % of vehicle control at 1 µM at MGL was determined as 262%. Besides, the Kd on mutant MGL (setting [2]) was 0.143 µM. Moreover, in experiment [1], the IC50 came to 41 nM.
For `O=C(c1ccc(-c2cccc(C(F)(F)F)c2)cc1)N1CCN(C2CN(C(=O)c3cscn3)C2)CC1` [Cpd 1067, 1-[1-(1,3-Thiazol-4-ylcarbonyl)azetidin-3-yl]-4-{[3′-(trifluoromethyl)biphenyl-4-yl]carbonyl}piperazine] the same measures were 408%, 0.007 µM and 7 nM.
For `Cc1c(C(=O)N2CC(N3CCN(C(=O)c4ccccc4)CC3)C2)sc2ccc(-c3ccccc3)cc12` [Cpd 570, 1-{1-[(3-Methyl-5-phenyl-1-benzothiophen-2-yl)carbonyl]azetidin-3-yl}-4-(phenylcarbonyl)piperazine] the same measures were 210%, 0.03 µM and 22 nM.
For `O=C(c1nccs1)N1CCN(C2CN(C(=O)c3sc4ccc(Cl)cc4c3C(F)(F)F)C2)CC1` [Cpd 896, 1-(1-{[5-Chloro-3-(trifluoromethyl)-1-benzothiophen-2-yl]carbonyl}azetidin-3-yl)-4-(1,3-thiazol-2-ylcarbonyl)piperazine] the same measures were 648%, 0.008 µM and below 5 nM.
As to `O=C(c1ccc(COc2cccc(Cl)c2)cc1)N1CC(N2CCN(C(=O)c3cscn3)CC2)C1` [Cpd 959], on MGL, the 2-AG accumulation, % of vehicle control at 1 µM was determined as 861%. The Kd on mutant MGL (setting [2]) is 0.044 µM. This molecule gave an IC50 in experiment [1] below 5 nM.
As for `Cn1cc(Cc2ccc(F)cc2)c2ccc(C(=O)N3CC(N4CCN(C(=O)c5cscn5)CC4)C3)cc21` [Cpd 1027], the 2-AG accumulation, % of vehicle control at 1 µM at MGL was 785%. On mutant MGL (compound concentration measured by qNMR, read-out: MGL mutant ThermoFluor qKd (using qNMR conc.)), the Kd came out at 0.012 µM. In experiment [1], this molecule gave an IC50 of 14 nM.
Regarding `O=C(c1ccc2c(ccn2-c2ccc(OC(F)(F)F)cc2)c1)N1CC(N2CCN(C(=O)c3nccs3)CC2)C1` [Cpd 1369], the 2-AG accumulation, % of vehicle control at 1 µM at MGL was determined as 874%. At mutant MGL (setting [3]), the Kd was 0.002 µM. In addition, in experiment [1], the IC50 was below 5 nM.
Take `Cc1nc(-c2ccc(F)cc2)sc1C(=O)N1CC(N2CCN(C(=O)c3nccs3)CC2)C1` [Cpd 1150]: at MGL (compound 0.1 μM, read-out: Rat Brain 2AG % VehCntrl (%) @ 0.1 μM), the 2-AG accumulation, % of vehicle control at 0.1 µM was determined as 139%. In addition, at MGL, the 2-AG accumulation, % of vehicle control at 1 µM worked out at 459% and the 2-AG accumulation, % of vehicle control at 10 µM came to 715%. Further, the Kd on mutant MGL (setting [2]) amounted to 0.013 µM. It took 36 nM to reach half-maximal inhibition in experiment [1] (IC50).
`O=C(c1cc(-c2cccc(F)c2)cs1)N1CC(N2CCN(C(=O)c3nccs3)CC2)C1` [Cpd 1160]: the 2-AG accumulation, % of vehicle control at 1 µM on MGL amounted to 260%. In addition, the Kd on mutant MGL (setting [3]) is 0.139 µM. The molecule further had an IC50 in experiment [1] of 45 nM.
As for `O=C(c1ccc2c(ccn2-c2cc(F)cc(F)c2)c1)N1CC(N2CCN(C(=O)c3nccs3)CC2)C1` [Cpd 1371], at MGL, the 2-AG accumulation, % of vehicle control at 1 µM is 827%. Also, the Kd at mutant MGL (setting [3]) was 0.003 µM. For the same molecule, the IC50 in experiment [1] is below 5 nM.
In the case of `O=C(c1ccc2c(ccn2-c2cc(F)c(F)c(F)c2)c1)N1CC(N2CCN(C(=O)c3nccs3)CC2)C1` [Cpd 1367], at MGL, the 2-AG accumulation, % of vehicle control at 1 µM turned out to be 798%. The Kd on mutant MGL (setting [4]) amounted to 0.002 µM. In addition, the IC50 in experiment [1] is below 5 nM.
For `O=C(c1nccs1)N1CCN(C2CN(C(=O)c3cccc4nc(-c5ccccc5)oc34)C2)CC1` [Cpd 1154, 2-Phenyl-7-({3-[4-(1,3-thiazol-2-ylcarbonyl)piperazin-1-yl]azetidin-1-yl}carbonyl)-1,3-benzoxazole] the same measures were 558%, 0.006 µM and 40 nM.
On to `O=C(c1cscn1)N1CCN(C2CN(C(=O)c3sc4ccc(Cl)cc4c3C(F)(F)F)C2)CC1` [Cpd 673], for which the 2-AG accumulation, % of vehicle control at 1 µM at MGL is 280%. Also, the Kd at mutant MGL (setting [2]) is 0.05 µM. Also, the IC50 in experiment [1] turned out to be 17 nM.
Turning to `O=C(c1ccc2c(-c3ccc(C(F)(F)F)cc3)c[nH]c2c1)N1CC(N2CCN(C(=O)c3cscn3)CC2)C1` [Cpd 1344], on MGL, the 2-AG accumulation, % of vehicle control at 1 µM came out at 543%. For the same molecule, the Kd at mutant MGL (setting [2]) was determined as 0.01 µM. In experiment [1], this molecule yielded an IC50 below 5 nM.
For `CCCn1ccc2cc(C(=O)N3CC(N4CCN(C(=O)c5nccs5)CC4)C3)ccc21` [Cpd 687] the same measures were 698%, 0.004 µM and 44 nM.
For `Cc1c(Cc2ccc(C(F)(F)F)cc2)cccc1C(=O)N1CC(N2CCN(C(=O)c3cscn3)CC2)C1` [Cpd 1009] the same measures were 706%, 0.589 µM and 65 nM.
As for `O=C(c1cscn1)N1CCN(C2CN(C(=O)c3cccc4nc(-c5cccc(F)c5)oc34)C2)CC1` [Cpd 1254], the 2-AG accumulation, % of vehicle control at 1 µM on MGL worked out at 187%. For the same molecule, the Kd at mutant MGL (setting [4]) came out at 0.1 µM. Besides, 765 nM corresponded to half-maximal inhibition in experiment [1] (IC50).
Consider `COc1ccc(-n2ccc3cc(C(=O)N4CC(N5CCN(C(=O)c6nccs6)CC5)C4)ccc32)cn1` [Cpd 1072, 1-(6-Methoxypyridin-3-yl)-5-({3-[4-(1,3-thiazol-2-ylcarbonyl)piperazin-1-yl]azetidin-1-yl}carbonyl)-1H-indole], for which, on MGL, the 2-AG accumulation, % of vehicle control at 1 µM was 839%. Also, at mutant MGL (setting [5]), the Kd was found to be 0.007 µM. The molecule further showed an IC50 in experiment [1] of 8 nM.
`O=C(c1ccc(-c2ccccc2)cc1)N1CCN(C2CN(C(=O)c3ncco3)C2)CC1` [Cpd 1283, 1-(Biphenyl-4-ylcarbonyl)-4-[1-(1,3-oxazol-2-ylcarbonyl)azetidin-3-yl]piperazine]: the 2-AG accumulation, % of vehicle control at 1 µM at MGL is 62%. Further, at mutant MGL (setting [2]), the Kd came to 0.523 µM. This molecule also gave an IC50 in experiment [1] of 2170 nM.
On to `O=C(c1ccc(-c2ccc(F)cc2)cc1)N1CC(N2CCN(C(=O)c3cscn3)CC2)C1` [Cpd 225, 1-{1-[(4′-Fluorobiphenyl-4-yl)carbonyl]azetidin-3-yl}-4-(1,3-thiazol-4-ylcarbonyl)piperazine], for which the 2-AG accumulation, % of vehicle control at 10 µM on MGL came out at 656%. The Kd at mutant MGL (setting [4]) stood at 0.02 µM. The molecule also gave an IC50 in experiment [1] of 54.7 nM.
For `CCCN(CCC)S(=O)(=O)c1ccc(C(=O)N2CC(N3CCN(C(=O)c4nccs4)CC3)C2)cc1` [Cpd 658], the 2-AG accumulation, % of vehicle control at 1 µM at MGL was 351%. The Kd on mutant MGL (setting [5]) came to 0.402 µM. Also, in experiment [1], it took 9 nM to reach half-maximal inhibition (IC50).
Consider `O=C(c1cccc(-c2cccc(C(F)(F)F)c2)c1)N1CC(N2CCN(C(=O)c3nccs3)CC2)C1` [Cpd 1093], for which, at MGL, the 2-AG accumulation, % of vehicle control at 1 µM turned out to be 472%. Further, the Kd at mutant MGL (setting [2]) worked out at 0.24 µM. Further, the IC50 in experiment [1] came to 11 nM.
For `O=C(c1nccs1)N1CCN(C2CN(C(=O)c3sc4cc(-c5ccccc5)ccc4c3C(F)(F)F)C2)CC1` [Cpd 1095, 1-(1-{[6-Phenyl-3-(trifluoromethyl)-1-benzothiophen-2-yl]carbonyl}azetidin-3-yl)-4-(1,3-thiazol-2-ylcarbonyl)piperazine] the same measures were 484%, 0.011 µM and 11 nM.
